# BindingDB's records for patent US10023557 (LIFESCI PHARMACEUTICALS, INC., 2018)
# Biological target: Plasma kallikrein (Homo sapiens, UniProt P03952)
# Test: In Vitro Enzyme Inhibition of hPK
# Settings: pH 7.5
# Description: A 10 mM solution of the test compound was made in DMSO. […] A control tube containing only DMSO is included. […] 50 μL was removed from this mixture and placed into duplicate wells on a Microfluor 1Black U-bottom microtiter plate (Thermo Scientific). This plate was incubated for 5 minutes at 37° C. To each well, 50 μL of pre-warmed 2×PFR-AMC was added to start the enzymatic reaction. Cleavage of PFR-AMC was monitored in a Biotek Synergy H4 reader set at 37° C. Readings are taken every 43 seconds for 1 hour. […] The IC50 is calculated using the Gen5 (Biotek Instruments).
# Sequence of Plasma kallikrein (P03952 20-390 limits assumed): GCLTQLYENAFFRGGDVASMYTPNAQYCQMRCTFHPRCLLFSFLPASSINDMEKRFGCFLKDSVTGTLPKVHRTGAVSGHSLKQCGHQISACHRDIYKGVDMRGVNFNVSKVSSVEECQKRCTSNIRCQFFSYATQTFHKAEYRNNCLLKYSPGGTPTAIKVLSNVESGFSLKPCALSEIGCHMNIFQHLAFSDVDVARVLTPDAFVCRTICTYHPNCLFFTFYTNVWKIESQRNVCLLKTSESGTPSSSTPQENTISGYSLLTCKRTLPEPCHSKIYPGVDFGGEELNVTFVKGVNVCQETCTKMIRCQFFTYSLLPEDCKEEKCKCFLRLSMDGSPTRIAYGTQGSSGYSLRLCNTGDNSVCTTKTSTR
# Sequence of Plasma kallikrein (P03952 391-638 limits assumed): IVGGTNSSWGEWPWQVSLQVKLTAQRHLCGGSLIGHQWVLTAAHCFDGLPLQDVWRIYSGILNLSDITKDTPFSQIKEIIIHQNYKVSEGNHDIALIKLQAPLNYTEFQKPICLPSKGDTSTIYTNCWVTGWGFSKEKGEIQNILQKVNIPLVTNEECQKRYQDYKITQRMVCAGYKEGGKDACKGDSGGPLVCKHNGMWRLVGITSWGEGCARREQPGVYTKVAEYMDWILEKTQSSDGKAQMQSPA
smiles,measurement,value
"Cc1nc(N)ccc1CNC(=O)c1ccnc(CC2=CC3C=C(Cl)C=NC3C=C2)c1 (stereo unspecified) [US10023557, Example 39]",IC50,< 100 nM
